The test system of assay [1] is Bacillus subtilis. The experiment in a line: Antimicrobial disc diffusion assay, Bacillus subtilis. The conditions noted are these: 20 μg/disc, 6.35 mm paper discs, overnight at 37° C., read-out: Antimicrobial Bacillus subtilis zone (diameter of the zone of growth inhibition). The format is cell-based, Bacillus subtilis (ATCC strain 6633). As to the method:
(§1) Unless otherwise noted, all media were autoclaved at 121° C. for 15 minutes.
Standard spore stocks (ATCC strain 6633 were purchased from Difco (#0453-36-0).
B. subtilis was inoculated into Penassay medium (1 mL of stock per 200 mL agar), melted, and cooled to 45° C. Plates were poured as described above.
Paper discs (6.35 mm) were impregnated with the test substance and allowed to dry. They were then placed onto the surface of a test plate prepared as detailed above. Plates were incubated overnight at 37° C., after which time the zones of growh inhibition could be read. These were expressed as the diameter of the zone in millimeters. Standard drugs were used in all cases.
In general terms: Agar diffusion results depend on both activity and mobility in agar.

Assay [2] has as its system Candida albicans. In words: Antimicrobial MIC protocol, Candida albicans. The conditions noted are these: lowest concentration which completely inhibited growth, 1000 cells/mL, 37° C. overnight. The format is cell-based, Candida albicans (ATCC strain 44506). On the procedure: as §1
Candida albicans: C. albicans (ATCC strain 44506 was grown on Sabouraud dextrose agar to produce single colonies, one of which was used to inoculate Sabouraud dextrose broth. The broth was incubated at 37° C. with shaking at 200 rpm for 18 hours. The resultant culture was brought to 10% (v/v) glycerol, frozen at -80° C., and used as the inoculum for the anti-Candida assay.
Two-fold dilutions of the test compound were prepared in 50 μL volumes of a suitable solvent using 96-well microtiter plates. In a separate 96-well plate, 35 μL volumes of either Sabouraud dextrose broth or RPMI-1640 were placed in each well. The test compound (5 μL) was then transferred to the broth. An inoculum of C. albicans in the appropriate medium was added to give a cell density of 1000 cells/mL and a total volume of 50 μL. Plates were incubated at 37° C. overnight.

Assay [3] relates to P388 murine leukemia cells. The experiment in a line: P388 in vitro antitumor screen (inhibition of P388 cell proliferation, MTT assay). The format is cell-based. As to conditions: Mus musculus; for IC50: P388 cells, 48-hour incubation, MTT assay. On the procedure:
P388 murine leukemia cells, obtained from the National Cancer Institute, Bethesda, MD, were maintained at 37° C. in 5% CO2 in humidified air. Growth medium was Roswell Park Memorial Institute medium 1640 supplemented with 10% heat-inactivated horse serum. Stock cultures of P388 cells were grown in antibiotic-free growth medium and were subcultured (10^5 cells/ml, 25 ml cultures in T-25 plastic tissue culture flasks) every 2-3 days. […] An appropriate volume of the dilution was transferred to duplicate wells in a 96-well plate, evaporated to dryness, and 200 μl of growth medium-containing cells at a density of 1×10^5 cells/ml were added per well (final concentration of extract was 20 μg/ml). […] For daily quality control, each technician determines the IC50 of fluorouracil for inhibition of P388 cell proliferation. After 48-hour incubations, cell number was determined with the MTT assay (below), calculated as a percent of untreated cell growth, converted to percent inhibition, and reported to the chemist requesting the screen.
The initial determination of an IC50 value for inhibition of P388 cell proliferation with a crude, semipure, or pure sample was made by diluting the sample in methanol to the appropriate concentration, and then serial 1:1 dilutions were made in duplicate in a 96-well plate, such that the final concentrations in the assay were 20, 10, 5, 1.25, and 0.625 μg/ml. After solvent was evaporated to dryness, cells were added to each well as described above. After 48-hour incubations, cell numbers were determined with the MTT assay, converted to percent control, and plotted versus the log of the sample concentration. Curves were fitted by least-squares linear regression of logit-transformed data and the concentration of sample that inhibited cell proliferation by 50% was reported to the chemist requesting the screen. If the IC50 value was less than 0.625 μg/ml, additional serial dilutions were made and tested for activity.
MTT or 3-(4,5-dimethylthiazol-2-yl)-2,5-diphenyl-tetrazolium bromide is used in an established method (J. Immunol. Methods [1983] 65:55-63) to enumerate cells rather than "Coulter counting." For screening purposes, the correlation between percent inhibition determined for actual crude extracts with the Coulter counter and MTT method was very good (r=0.953, n=102 separate determinations of activity at 20 μg/ml), and no extract that was positive as determined by actual cell counts was lost using the MTT assay.
A general note: Tetrazolium assays rely on reduction of a dye to a coloured formazan, in cell work by metabolically active cells.

Experimental findings from patent publication US4970226A, “Bis-indole imidazole compounds which are useful antitumor and antimicrobial agents” (Harbor Branch Oceanographic Institution, Inc., priority 1989, dated 1990) are described below.

In brackets after ≈: the same amount, converted by molar mass.

Broadly, the zone of inhibition is the size of the clear area around the sample on an inoculated plate. Broadly, the MIC is the smallest concentration in the dilution series that meets the test's criterion for growth inhibition. A lower MIC goes with a more susceptible organism. What is called IC50 is the concentration that gives 50% inhibition. A higher IC50 goes with lower potency. A word on the inhibition: it is the relative decrease from the control value, in per cent.

Take `Brc1ccc2c(-c3c[nH]c(-c4c[nH]c5cc(Br)ccc45)n3)c[nH]c2c1` [Nortopsentin A]: the zone of inhibition at 20 µg/disc in assay [1] amounted to 8 mm. The compound further registered an MIC in assay [2] of 3.1 µg/mL (≈ 6.8 µM). Also, in assay [3], the midpoint of inhibition, the IC50, lay at 7.6 µg/mL (≈ 16.7 µM).

Regarding `Brc1ccc2c(-c3nc(-c4c[nH]c5ccccc45)c[nH]3)c[nH]c2c1` [Nortopsentin B], the zone of inhibition at 20 µg/disc in assay [1] came to 9 mm. The minimal inhibitory concentration (MIC) in assay [2] came to 6.2 µg/mL (≈ 16.4 µM). The compound also had an IC50 in assay [3] of 7.8 µg/mL (≈ 20.7 µM).

Turning to `Cn1c(-c2cn(C)c3ccccc23)c[n+](C)c1-c1cn(C)c2cc(Br)ccc12` [Tetramethylnortopsentin B], the zone of inhibition at 20 µg/disc in assay [1] turned out to be 12 mm. The MIC in assay [2] was > 50 µg/mL. In assay [3], the IC50 was 0.34 µg/mL.

As for `O=c1[nH]cc(F)c(=O)[nH]1` [fluorouracil, reference compound], the inhibition at 0.2 µg/mL in assay [3] (P388, 48 h, read-out: inhibition of cell replication (positive control)) was ~95%.

`Brc1ccc2c(-c3c[nH]c(-c4c[nH]c5ccccc45)n3)c[nH]c2c1` [Nortopsentin C]: in assay [1], the zone of inhibition at 20 µg/disc came out at 9 mm. The MIC in assay [2] amounted to 12.5 µg/mL (≈ 33.1 µM). The same compound had an IC50 in assay [3] of 1.7 µg/mL (≈ 4.51 µM).
